# Earlier results as cited in article PMC8781228 (Bioorganic & medicinal chemistry letters, 2017).
# Columns and labels:
# [1] = system: S1PR2; settings: read-out: EC50 (allosteric S1PR2 selective agonist)
# [2] = system: S1PR2; settings: [33P]S1P competitive binding assay
# [3] = system: S1PR2; settings: [γ-35S]GTPγS binding assay
# [4] = system: S1PR1; settings: [γ-35S]GTPγS binding assay
# [5] = system: S1PR3; settings: [γ-35S]GTPγS binding assay
# [6] = system: S1PR4; settings: [γ-35S]GTPγS binding assay
# [7] = system: S1PR5; settings: [γ-35S]GTPγS binding assay
smiles,measurement,setting,value
Cc1cc(C(=O)Cn2cc(C#N)ccc2=O)c(C)n1Cc1ccccc1 [CYM-5520],EC50,[1],480 nM
same,competition with S1P,[2],not competitive with S1P
"CCCCCCCCc1ccc(CCC(N)(CO)CO)cc1 [FTY720, fingolimod]",activity at S1PR2,[3],inactive
same,activity at S1PR1,[4],potent agonist
same,activity at S1PR3,[5],potent agonist
same,activity at S1PR4,[6],potent agonist
same,activity at S1PR5,[7],potent agonist
